Experimental data taken from paper PMC10005104 (Molecules, 2023).
“And” between values parts separate entries of the source, which are not always exact repeats. Equal values may be shown once. Where a name gives a salt, the structure may show the parent alone. Read-outs that look alike come from different tables or passages of the source. Marks after values point to notes of the source that are not given here.

Experiments:
human H3 receptor (hH3R) = biological target: T1, human H3 receptor (hH3R) (Homo sapiens, UniProt Q9Y5N1); assay: [3H]-Nα-methylhistamine radioligand binding assay, HEK293 cell membranes expressing hH3R; conditions: hH3R Ki Mean [CI 95%], HEK293 cells expressing human H3 receptor; at least three independent repetitions
T1 construct: expressed in transfected cells; host or cells: HEK293
Description: The affinity for hH3R was assessed in vitro in radioligand binding assays, using membrane preparations of HEK293 cells stably expressing hH3R, while [^3H]-N^α-methylhistamine was used as a radioligand. The exact procedure was described previously by Kottke et al.. Novel compounds were tested as oxalic acid salts. […]. The activity depended on all three variables, i.e., the presence of an amine group, the chain length (five or six carbons), and the type of substituent in the phenyl ring. With regard to the change in the amine moiety, it can be observed that, regardless of the length of the chain and the type of R substituent, the activity of the derivatives was arranged in the following order: 3-methylpiperidine ≥ piperidine ≥ azepane >> 4-metylpiperidine derivatives. Regarding the length of the carbon chain, compounds bearing the pentylene chain are characterized by a higher binding affinity to the receptor than hexylene derivatives (exception: 10). […]
H3R receptor affinity assays were performed in the radioligand competition assay. Human H3R was stably expressed in HEK293 cells. [^3H]-N^α-Methylhistamine (KD = 3.08 nM) was used as the radioligand. The compounds used in the experiments were dissolved in DMSO. The precise experiment was performed as previously described. Complete curves were obtained for at least seven approximate concentrations, in at least three independent experiments, performed at least in duplicate. Ki values were calculated using the Cheng–Prusoff equation. Results are presented as mean values with confidence intervals (CI) (95%).

[1] = biological target: T2, AChE from electrophorus electricus (eeAChE) (Electrophorus electricus, UniProt O42275); assay: modified Ellman colorimetric assay, eeAChE; assay type: biochemical; conditions: for inhibition at 10 µM: read-out: eeAChE % inh; for IC50: three independent experiments, read-out: eeAChE IC50 Mean ± SEM
T2 construct: purchased Sigma-Aldrich (Steinheim, Germany)
Description: All compounds were tested at a concentration of 10 µM in a modified colorimetric method first described by Ellman et al. in the 1960s, using AChE from electrophorus electricus (eeAChE) and BuChE from equine serum (eqBuChE). […]. All results are collected in Table 1. […]. […] No correlation was observed between inhibitory activity and hH3R affinity. The most interesting compounds were among the azepane derivatives. […]. AChE from electrophorus electricus and BuChE from equine serum were purchased from Sigma-Aldrich (Steinheim, Germany). The whole procedure was performed as previously described, using a modified Ellman method in 96-well microplates. Absorbance was measured using an EnSpire multimode microplate reader (PerkinElmer, Waltham, MA, USA) at 412 nm. Initial screening was performed for compounds at a concentration of […]. The percentage of inhibition was calculated by comparison with a blank sample (100% enzyme activity). For compounds showing >70% inhibition of enzyme activity, IC50 values were determined, measuring absorbance at six different inhibitor concentrations. Each concentration was measured in triplicate. IC50 values were calculated using GrapPad Prism 9 software (GraphPad Software, San Diego, CA, USA). Data are expressed as mean ± SEM.

[2] = biological target: T3, BuChE from equine serum (eqBuChE) (Equus caballus, UniProt P81908); assay: biochemical; conditions: for inhibition at 10 µM: read-out: eqBuChE % inh
T3 construct: BuChE from equine serum (eqBuChE); purchased Sigma-Aldrich (Steinheim, Germany); host or cells: equine serum
Description: AChE from electrophorus electricus and BuChE from equine serum were purchased from Sigma-Aldrich (Steinheim, Germany). The whole procedure was performed as previously described, using a modified Ellman method in 96-well microplates. […] Initial screening was performed for compounds at a concentration of […]. The percentage of inhibition was calculated by comparison with a blank sample (100% enzyme activity). […] Each concentration was measured in triplicate. IC50 values were calculated using GrapPad Prism 9 software (GraphPad Software, San Diego, CA, USA). Data are expressed as mean ± SEM.

hMAO B = biological target: T4, hMAO B (Homo sapiens, UniProt P27338); assay: fluorometric Amplex red MAO assay; assay type: biochemical; conditions: read-out: hMAO B % inh
T4 construct: purchased Sigma-Aldrich (Steinheim, Germany)
T4 sequence (P27338 1-520): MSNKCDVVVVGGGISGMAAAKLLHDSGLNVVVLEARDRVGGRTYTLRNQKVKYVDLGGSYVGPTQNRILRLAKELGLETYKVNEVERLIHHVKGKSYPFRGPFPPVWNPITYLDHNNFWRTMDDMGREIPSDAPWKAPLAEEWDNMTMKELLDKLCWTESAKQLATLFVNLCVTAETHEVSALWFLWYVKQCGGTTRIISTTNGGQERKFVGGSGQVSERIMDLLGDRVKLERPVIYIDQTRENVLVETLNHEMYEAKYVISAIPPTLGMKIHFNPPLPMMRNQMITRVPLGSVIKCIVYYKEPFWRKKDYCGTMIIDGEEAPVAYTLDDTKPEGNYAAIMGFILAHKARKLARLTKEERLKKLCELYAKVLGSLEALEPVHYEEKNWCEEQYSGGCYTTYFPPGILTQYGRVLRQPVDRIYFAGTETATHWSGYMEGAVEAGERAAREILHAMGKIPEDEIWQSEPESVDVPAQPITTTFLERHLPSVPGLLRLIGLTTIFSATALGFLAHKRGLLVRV
Description: The ability to inhibit MAO B was estimated by a fluorescence assay, as previously described.
The enzyme was purchased from Sigma-Aldrich (Steinheim, Germany). Screening was carried out at a concentration of 1 micromolar. Inhibitor activity was measured in the presence of p-tyramine.
Data are expressed as mean values of two independent experiments.

MTS assay in HepG2 cells = assay type: cell-based; conditions: human, HepG2 hepatoma cells; at 50 µM, percentage of control (vehicle-treated cells); read-out: HepG2 Cell Viability (%)
Description: (§1) . After the indicated time, the MTS reagent was added directly to the cultured cells for 1 h, and then the absorbance at 490 nm was read. […] The results are presented in Table 2 and Figures S1 and S2 (Supplementary Materials).
(§2) The hepatoma cell line HepG2 (ATCC® HB-8065TM) and SH-SY5Y CRL-2266 neuroblastoma cell line were used to evaluate the toxicity of tested compounds. Tests were conducted as described previously. The CellTiter 96® Aqueous Non-Radioactive Cell Proliferation Assay was purchased from Promega (Madison, WI, USA). […]. […] Each experiment was performed twice, in triplicate.

HepG2 cells = assay: MTS assay in HepG2 cells; assay type: cell-based; conditions: Homo sapiens, HepG2; MTS assay, 48 h of exposure
Description: as §1, §2

SH-SY5Y cells = assay: MTS assay in SH-SY5Y cells; assay type: cell-based; conditions: for SH-SY5Y Cell Viability (%): at 50 µM, percentage of control (vehicle-treated cells)
Description: as §1, §2

[3] = MTS assay, statements on both cell lines together; assay type: cell-based, human; conditions: human, HepG2 hepatoma cells and SH-SY5Y neuroblastoma cells; HepG2 48 h, SH-SY5Y 24 h; up to 50 µM; read-out: cell viability at the highest doses tested
[4] = MTS assay in SH-SY5Y cells; assay type: cell-based; conditions: human, SH-SY5Y neuroblastoma cells; at 50 µM, percentage of control (vehicle-treated cells); read-out: SH-SY5Y Cell Viability (%)
Description: as §1, §2

hH3R = conditions: cited from earlier work
[5] = biological target: T2, AChE from electrophorus electricus (eeAChE); conditions: at 10 µM; cited from earlier work
[6] = at 1 µM, two independent experiments

T1 sequence (Q9Y5N1 whole entry): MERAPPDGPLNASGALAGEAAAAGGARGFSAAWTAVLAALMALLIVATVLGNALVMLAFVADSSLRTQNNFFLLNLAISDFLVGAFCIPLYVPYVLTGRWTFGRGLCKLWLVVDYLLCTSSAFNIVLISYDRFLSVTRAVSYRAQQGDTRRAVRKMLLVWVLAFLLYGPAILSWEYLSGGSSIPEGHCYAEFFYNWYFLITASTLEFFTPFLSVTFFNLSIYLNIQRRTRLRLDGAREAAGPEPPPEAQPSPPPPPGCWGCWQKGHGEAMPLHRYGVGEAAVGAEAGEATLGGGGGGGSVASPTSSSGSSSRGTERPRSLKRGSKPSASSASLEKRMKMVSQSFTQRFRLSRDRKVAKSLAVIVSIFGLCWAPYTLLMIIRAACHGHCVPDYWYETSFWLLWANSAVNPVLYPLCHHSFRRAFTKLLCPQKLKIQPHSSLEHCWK
T2 sequence (O42275 24-633): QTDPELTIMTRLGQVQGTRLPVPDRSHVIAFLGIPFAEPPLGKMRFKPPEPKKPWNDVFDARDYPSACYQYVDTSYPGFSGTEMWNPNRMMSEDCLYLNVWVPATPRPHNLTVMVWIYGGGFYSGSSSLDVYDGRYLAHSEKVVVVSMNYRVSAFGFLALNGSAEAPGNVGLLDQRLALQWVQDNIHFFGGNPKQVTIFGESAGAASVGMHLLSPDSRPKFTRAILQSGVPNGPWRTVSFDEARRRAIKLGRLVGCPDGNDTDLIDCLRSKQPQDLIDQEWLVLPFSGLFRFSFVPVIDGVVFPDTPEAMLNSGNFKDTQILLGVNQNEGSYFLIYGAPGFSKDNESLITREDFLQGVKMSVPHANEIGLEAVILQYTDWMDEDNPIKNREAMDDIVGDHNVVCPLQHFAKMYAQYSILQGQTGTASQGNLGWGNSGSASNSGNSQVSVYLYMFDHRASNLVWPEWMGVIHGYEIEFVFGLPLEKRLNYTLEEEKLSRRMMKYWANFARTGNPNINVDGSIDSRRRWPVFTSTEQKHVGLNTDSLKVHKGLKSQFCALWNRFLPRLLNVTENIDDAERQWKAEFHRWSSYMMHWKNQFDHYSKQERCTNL
T3 sequence (P81908 whole entry): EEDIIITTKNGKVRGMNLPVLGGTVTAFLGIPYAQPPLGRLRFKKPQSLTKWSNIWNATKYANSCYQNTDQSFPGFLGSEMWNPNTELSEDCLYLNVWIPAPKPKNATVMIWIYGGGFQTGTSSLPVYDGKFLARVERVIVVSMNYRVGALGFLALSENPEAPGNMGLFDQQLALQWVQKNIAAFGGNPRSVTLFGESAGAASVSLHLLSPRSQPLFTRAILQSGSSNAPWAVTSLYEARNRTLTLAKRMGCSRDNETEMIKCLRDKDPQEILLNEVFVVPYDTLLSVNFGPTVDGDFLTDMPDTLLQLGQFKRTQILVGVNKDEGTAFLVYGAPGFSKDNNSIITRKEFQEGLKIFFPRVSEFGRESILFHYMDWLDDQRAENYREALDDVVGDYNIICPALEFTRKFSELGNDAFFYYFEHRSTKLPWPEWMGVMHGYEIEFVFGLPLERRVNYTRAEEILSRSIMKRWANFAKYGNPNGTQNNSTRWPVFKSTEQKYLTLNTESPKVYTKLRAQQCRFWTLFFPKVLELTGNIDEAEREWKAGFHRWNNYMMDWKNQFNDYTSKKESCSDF

CC(=O)c1ccc(OCCCCCN2CCCCC2)cc1 [Compound 2, 1-(4-((5-(Piperidin-1-yl)pentyl)oxy)phenyl)ethan-1-one hydrogen oxalate]
Ki (human H3 receptor (hH3R)): < 0.05 µM and 0.034 µM | inhibition at 10 µM [1]: 45% | inhibition at 10 µM [2]: 25% | inhibition at 1 µM (hMAO B; [6]): 2%

CC(=O)c1ccc(OCCCCCCN2CCCCC2)cc1 [Compound 3, 1-(4-((6-(Piperidin-1-yl)hexyl)oxy)phenyl)ethan-1-one hydrogen oxalate]
Ki (human H3 receptor (hH3R)): 0.075 µM | inhibition at 10 µM [1]: 67% | inhibition at 10 µM [2]: 23% | inhibition at 1 µM (hMAO B; [6]): 3%

CCC(=O)c1ccc(OCCCCCN2CCCCC2)cc1 [Compound 4, 1-(4-((5-(Piperidin-1-yl)pentyl)oxy)phenyl)propan-1-one hydrogen oxalate]
Ki (human H3 receptor (hH3R)): < 0.05 µM and 0.024 µM | inhibition at 10 µM [1]: 49% | inhibition at 10 µM [2]: 32% | inhibition at 1 µM (hMAO B; [6]): 16%

CCC(=O)c1ccc(OCCCCCCN2CCCCC2)cc1.O=C(O)C(=O)O [Compound 5, 1-(4-((6-(Piperidin-1-yl)hexyl)oxy)phenyl)propan-1-one hydrogen oxalate]
Ki (human H3 receptor (hH3R)): < 0.05 µM and 0.041 µM | IC50 [1]: 4.79 ± 0.19 µM | IC50 ([2]; three independent experiments, read-out: eqBuChE IC50 Mean ± SEM): 1.35 ± 0.04 µM | inhibition at 1 µM (hMAO B; [6]): 22% | viability at 48 h, 50 µM (MTS assay in HepG2 cells): 69.5 ± 2.14% | IC50 (HepG2 cells): 158 µM | SH-SY5Y Cell Viability (%) (SH-SY5Y cells): No toxic effect | viability at 50 µM [3]: > 50%

CC(=O)c1ccc(OCCCCCN2CCCC(C)C2)cc1 (stereo not shown) [Compound 6, 1-(4-((5-(3-Methylpiperidin-1-yl)pentyl)oxy)phenyl)ethan-1-one hydrogen oxalate]
Ki (human H3 receptor (hH3R)): < 0.05 µM and 0.026 µM | IC50 [1]: 3.06 ± 0.1 µM | inhibition at 10 µM [2]: 14% | inhibition at 1 µM (hMAO B; [6]): 10% | viability at 48 h, 50 µM (MTS assay in HepG2 cells): 74.3 ± 5.58% | IC50 (HepG2 cells): 120 µM | viability at 24 h, 50 µM [4]: 86.2 ± 2.2% | IC50 (SH-SY5Y cells; Homo sapiens, SH-SY5Y, MTS assay, 24 h of exposure): 149 µM | viability at 50 µM [3]: > 50%

CC(=O)c1ccc(OCCCCCCN2CCCC(C)C2)cc1.O=C(O)C(=O)O (stereo not shown) [Compound 7, 1-(4-((6-(3-Methylpiperidin-1-yl)hexyl)oxy)phenyl)ethan-1-one hydrogen oxalate]
Ki (human H3 receptor (hH3R)): 0.072 µM | IC50 [1]: 1.75 ± 0.05 µM | inhibition at 10 µM [2]: 18% | inhibition at 1 µM (hMAO B; [6]): 0% | viability at 48 h, 50 µM (MTS assay in HepG2 cells): 72.4 ± 4.54% | IC50 (HepG2 cells): 148 µM | SH-SY5Y Cell Viability (%) (SH-SY5Y cells): No toxic effect | viability at 50 µM [3]: > 50%

CCC(=O)c1ccc(OCCCCCCN2CCCC(C)C2)cc1 (stereo not shown) [Compound 9, 1-(4-((6-(3-Methylpiperidin-1-yl)hexyl)oxy)phenyl)propan-1-one hydrogen oxalate]
Ki (human H3 receptor (hH3R)): < 0.05 µM and 0.038 µM | inhibition at 10 µM [1]: 68% | inhibition at 10 µM [2]: 66% | inhibition at 1 µM (hMAO B; [6]): 12%

CC(=O)c1ccc(OCCCCCN2CCC(C)CC2)cc1 [Compound 10, 1-(4-((5-(4-Methylpiperidin-1-yl)pentyl)oxy)phenyl)ethan-1-one hydrogen oxalate]
Ki (human H3 receptor (hH3R)): 0.12 µM | inhibition at 10 µM [1]: 60% | inhibition at 10 µM [2]: 43% | inhibition at 1 µM (hMAO B; [6]): 0%

CC(=O)c1ccc(OCCCCCCN2CCC(C)CC2)cc1.O=C(O)C(=O)O [Compound 11, 1-(4-((6-(4-Methylpiperidin-1-yl)hexyl)oxy)phenyl)ethan-1-one hydrogen oxalate]
Ki (human H3 receptor (hH3R)): 0.106 µM | IC50 [1]: 2.65 ± 0.11 µM | inhibition at 10 µM [2]: 49% | inhibition at 1 µM (hMAO B; [6]): 0% | viability at 48 h, 50 µM (MTS assay in HepG2 cells): 77.5 ± 0.94% | IC50 (HepG2 cells): 223 µM | SH-SY5Y Cell Viability (%) (SH-SY5Y cells): No toxic effect | viability at 50 µM [3]: > 50%

CCC(=O)c1ccc(OCCCCCCN2CCC(C)CC2)cc1.O=C(O)C(=O)O [Compound 13, 1-(4-((6-(4-Methylpiperidin-1-yl)hexyl)oxy)phenyl)propan-1-one hydrogen oxalate]
Ki (human H3 receptor (hH3R)): 0.058 µM | IC50 [1]: 2.56 ± 0.08 µM | inhibition at 10 µM [2]: 65% | inhibition at 1 µM (hMAO B; [6]): 1% | viability at 48 h, 50 µM (MTS assay in HepG2 cells): 64.7 ± 4.4% | IC50 (HepG2 cells): 105 µM | SH-SY5Y Cell Viability (%) (SH-SY5Y cells): No toxic effect | viability at 50 µM [3]: > 50%

CC(=O)c1ccc(OCCCCCN2CCCCCC2)cc1 [Compound 14, 1-(4-((5-(Azepan-1-yl)pentyl)oxy)phenyl)ethan-1-one hydrogen oxalate]
Ki (human H3 receptor (hH3R)): 0.052 µM | inhibition at 10 µM [1]: 63% | inhibition at 10 µM [2]: 63% | inhibition at 1 µM (hMAO B; [6]): 37%

CC(=O)c1ccc(OCCCCCCN2CCCCCC2)cc1 [Compound 15, 1-(4-((6-(Azepan-1-yl)hexyl)oxy)phenyl)ethan-1-one hydrogen oxalate]
Ki (human H3 receptor (hH3R)): 0.079 µM | inhibition at 10 µM [1]: 67% | inhibition at 10 µM [2]: 68% | inhibition at 1 µM (hMAO B; [6]): 6%

Cc1ccc2oc(-c3ccc(OCCCCCCN4CCCCCC4)cc3)cc(=O)c2c1 [III]
Ki (hH3R): 0.16 µM

O=c1c2ccccc2oc2ccc(OCCCCCN3CCCCCC3)cc12 [IV]
Ki (hH3R): 0.17 µM

Clc1ccc(CCCOCCCN2CCCCC2)cc1 [pitolisant]
eeAChE % inh [5]: (3%) ^g

C#CCN[C@@H]1CCc2ccccc21 [rasagiline, reference compound]
inhibition at 1 µM (hMAO B): 100%
